Assay results published in patent US20080009418A1, “Selective Inhibitors” (Alchemia LTD., priority 2004, published 2008).

Experiments:
[1] = target: T1, Human κ-Opioid (KOP) (Homo sapiens, UniProt P41145); experiment: Radioligand binding, human κ-opioid (KOP) membranes, filtration, [3H]-Diprenorphine; conditions: compound at 10 μM; for A2: inhibition of radioligand binding: [3H]-Diprenorphine
T1 construct: purchased Perkin Elmer Biosignal
Method in brief: (§1)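 Percent inhibition of radioligand binding measured on recombinant human membranes: NK1 with [125I]-Substance P, KOP with [3H]-Diprenorphine. Incubation 1 h at room temperature, then harvest onto 0.3% PEI-soaked filters, cold Tris-HCl pH 7.4 washes and scintillation counting; non-specific binding from reference ligand wells.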

[2] = target: T2, Human opioid (ORL1) (Homo sapiens, UniProt P41146); experiment: Radioligand binding, human opioid ORL1 membranes, FlashPlate, [125I]-Nociceptin; conditions: compound at 10 μM; for A10: inhibition of radioligand binding: [125I]-Nociceptin
T2 construct: purchased Perkin Elmer Biosignal
Method in brief: (§2)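 Cloned human receptor membranes were coated onto FlashPlate wells and incubated with radioligand and compound (added from a 0.5 mM DMSO daughter plate) for 1 hour at room temperature in the dark. Scintillation counting gave percent inhibition, with DMSO defining total and reference ligand defining non-specific binding.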

[3] = target: T3, Mouse urotensin (mUR2) (Mus musculus, UniProt Q8VIH9); experiment: Radioligand binding, mouse urotensin mUR2 membranes, FlashPlate, [125I]-Urotensin II; conditions: compound at 10 μM; for A11: inhibition of radioligand binding: [125I]-Urotensin II
T3 construct: purchased Perkin Elmer Biosignal
T3 sequence (Q8VIH9 1-385): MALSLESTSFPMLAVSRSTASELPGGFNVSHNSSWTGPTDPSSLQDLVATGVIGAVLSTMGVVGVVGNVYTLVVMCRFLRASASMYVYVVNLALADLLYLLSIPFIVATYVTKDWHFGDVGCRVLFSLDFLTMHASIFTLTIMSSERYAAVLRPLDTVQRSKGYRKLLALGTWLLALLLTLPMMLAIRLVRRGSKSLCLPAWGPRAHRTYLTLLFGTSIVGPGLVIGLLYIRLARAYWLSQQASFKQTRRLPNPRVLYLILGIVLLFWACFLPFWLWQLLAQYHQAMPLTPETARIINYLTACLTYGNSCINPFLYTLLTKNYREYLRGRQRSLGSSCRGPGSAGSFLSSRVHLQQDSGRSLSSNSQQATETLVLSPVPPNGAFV
Method in brief: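 Cloned mouse urotensin (mUR2) receptor membranes from Perkin Elmer Biosignal were immobilized in FlashPlate microplates using a proprietary coating. Each well got 19.5 μl buffer, then 0.5 μl of DMSO, reference ligand, or compound. Adding 5 μl of [125I]-Urotensin II, diluted to 5× final concentration in binding buffer, started binding. Plates were sealed with TopSeal-A and incubated 1 hour at room temperature in the dark. Wells were counted for 30 seconds each on a TopCount after a 60-second delay, and percentage inhibition was calculated.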

[4] = target: T4, Human melanocortin (MC5) (Homo sapiens, UniProt P33032); experiment: Radioligand binding, human melanocortin MC5 membranes, FlashPlate, [125I]-NDP-αMSH; conditions: compound at 10 μM; for A5: inhibition of radioligand binding: [125I]-NDP-αMSH
T4 construct: purchased Perkin Elmer Biosignal
Method in brief: as §2

[5] = target: T5, Human neuropeptide Y (NPY-Y1) (Homo sapiens, UniProt P25929); experiment: Radioligand binding, human neuropeptide Y NPY-Y1 membranes, FlashPlate, [125I]-PYY; conditions: compound at 10 μM; for A9: inhibition of radioligand binding: [125I]-PYY
T5 construct: purchased Perkin Elmer Biosignal
T5 sequence (P25929 1-384): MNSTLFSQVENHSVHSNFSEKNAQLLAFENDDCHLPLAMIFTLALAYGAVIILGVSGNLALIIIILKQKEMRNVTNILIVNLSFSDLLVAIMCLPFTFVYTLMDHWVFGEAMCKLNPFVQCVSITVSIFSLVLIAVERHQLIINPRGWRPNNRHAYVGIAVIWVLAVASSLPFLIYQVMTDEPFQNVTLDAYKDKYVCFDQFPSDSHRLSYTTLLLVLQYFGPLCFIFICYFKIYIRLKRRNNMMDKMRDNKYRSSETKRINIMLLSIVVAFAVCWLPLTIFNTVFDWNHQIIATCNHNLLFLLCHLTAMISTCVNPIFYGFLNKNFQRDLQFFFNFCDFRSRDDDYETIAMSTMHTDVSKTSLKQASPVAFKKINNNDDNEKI
Method in brief: as §2

[6] = target: T6, Human neurokinin (NK1) (Homo sapiens, UniProt P25103); experiment: Radioligand binding, human neurokinin NK1 membranes, filtration, [125I]-Substance P; conditions: compound at 10 μM; for A8: inhibition of radioligand binding: [125I]-Substance P
T6 construct: purchased Perkin Elmer Biosignal
Method in brief: as §1

[7] = target: T7, Human μ-opioid (MOP) (Homo sapiens, UniProt P35372); experiment: Radioligand binding, human μ-opioid (MOP) membranes, FlashPlate, [3H]-Naloxone; conditions: compound at 10 μM; for A7: inhibition of radioligand binding: [3H]-Naloxone
T7 construct: purchased Perkin Elmer Biosignal
Method in brief: as §2

[8] = target: T8, Human Melanocortin (MC3) (Homo sapiens, UniProt P41968); experiment: Radioligand binding, human melanocortin MC3 membranes, FlashPlate, [125I]-NDP-αMSH; conditions: compound at 10 μM; for A3: inhibition of radioligand binding: [125I]-NDP-αMSH
T8 construct: purchased Perkin Elmer Biosignal
Method in brief: as §2

[9] = target: T9, Human Melanocortin (MC4) (Homo sapiens, UniProt P32245); experiment: Radioligand binding, human melanocortin MC4 membranes, FlashPlate, [125I]-NDP-αMSH; conditions: compound at 10 μM; for A4: inhibition of radioligand binding: [125I]-NDP-αMSH
T9 construct: purchased Perkin Elmer Biosignal
Method in brief: as §2

[10] = target: T10, Human melanin-concentrating hormone (MCH1) (Homo sapiens, UniProt Q99705); experiment: Radioligand binding, human melanin-concentrating hormone MCH1 membranes, FlashPlate, [125I]-S36057; conditions: compound at 10 μM
T10 construct: purchased Perkin Elmer Biosignal
Method in brief: as §2

[11] = target: T11, Human δ-opioid (DOP) (Homo sapiens, UniProt P41143); experiment: Radioligand binding, human δ-opioid (DOP) membranes, FlashPlate, [3H]-Bremazocine; conditions: compound at 10 μM; for A1: inhibition of radioligand binding: [3H]-Bremazocine
T11 construct: purchased Perkin Elmer Biosignal
Method in brief: as §2

T8 sequence (P41968 whole entry): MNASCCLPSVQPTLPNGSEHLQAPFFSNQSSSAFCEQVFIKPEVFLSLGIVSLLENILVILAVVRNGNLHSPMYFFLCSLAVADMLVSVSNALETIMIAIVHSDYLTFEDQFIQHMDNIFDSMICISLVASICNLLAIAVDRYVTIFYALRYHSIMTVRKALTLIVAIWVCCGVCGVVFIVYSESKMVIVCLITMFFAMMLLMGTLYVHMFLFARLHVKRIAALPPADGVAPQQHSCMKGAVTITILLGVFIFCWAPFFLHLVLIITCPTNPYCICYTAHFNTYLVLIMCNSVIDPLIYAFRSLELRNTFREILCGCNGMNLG
T11 sequence (P41143 whole entry): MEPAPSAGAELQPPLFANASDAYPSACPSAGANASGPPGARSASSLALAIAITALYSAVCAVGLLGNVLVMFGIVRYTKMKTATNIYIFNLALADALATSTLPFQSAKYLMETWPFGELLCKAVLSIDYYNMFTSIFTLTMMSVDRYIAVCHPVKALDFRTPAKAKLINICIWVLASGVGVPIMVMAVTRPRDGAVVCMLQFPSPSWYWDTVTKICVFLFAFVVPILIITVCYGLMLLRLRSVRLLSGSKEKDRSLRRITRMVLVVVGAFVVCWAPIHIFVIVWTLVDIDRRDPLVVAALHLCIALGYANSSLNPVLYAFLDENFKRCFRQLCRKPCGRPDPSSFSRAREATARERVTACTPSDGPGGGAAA
T6 sequence (P25103 whole entry): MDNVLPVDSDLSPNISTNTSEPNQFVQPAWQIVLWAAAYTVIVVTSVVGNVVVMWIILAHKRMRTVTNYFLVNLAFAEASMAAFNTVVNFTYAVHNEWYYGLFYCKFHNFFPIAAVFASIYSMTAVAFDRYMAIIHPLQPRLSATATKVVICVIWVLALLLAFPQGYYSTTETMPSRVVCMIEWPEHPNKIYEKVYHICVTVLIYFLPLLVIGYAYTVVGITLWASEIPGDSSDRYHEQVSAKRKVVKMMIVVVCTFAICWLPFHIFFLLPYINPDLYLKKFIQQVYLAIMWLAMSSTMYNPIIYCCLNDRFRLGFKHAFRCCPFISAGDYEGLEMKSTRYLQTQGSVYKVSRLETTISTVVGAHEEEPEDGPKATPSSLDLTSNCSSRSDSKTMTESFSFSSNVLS
T7 sequence (P35372 whole entry): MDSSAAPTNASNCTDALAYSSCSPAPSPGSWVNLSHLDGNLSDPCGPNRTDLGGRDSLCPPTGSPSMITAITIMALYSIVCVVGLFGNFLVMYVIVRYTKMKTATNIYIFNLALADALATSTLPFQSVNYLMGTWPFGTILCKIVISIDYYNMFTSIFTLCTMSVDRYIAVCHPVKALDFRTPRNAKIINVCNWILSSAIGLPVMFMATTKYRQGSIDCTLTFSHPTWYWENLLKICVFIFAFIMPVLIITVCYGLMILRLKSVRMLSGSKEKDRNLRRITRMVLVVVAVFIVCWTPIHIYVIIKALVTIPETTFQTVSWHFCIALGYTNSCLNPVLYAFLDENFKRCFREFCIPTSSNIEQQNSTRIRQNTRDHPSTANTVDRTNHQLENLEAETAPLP
T10 sequence (Q99705 whole entry): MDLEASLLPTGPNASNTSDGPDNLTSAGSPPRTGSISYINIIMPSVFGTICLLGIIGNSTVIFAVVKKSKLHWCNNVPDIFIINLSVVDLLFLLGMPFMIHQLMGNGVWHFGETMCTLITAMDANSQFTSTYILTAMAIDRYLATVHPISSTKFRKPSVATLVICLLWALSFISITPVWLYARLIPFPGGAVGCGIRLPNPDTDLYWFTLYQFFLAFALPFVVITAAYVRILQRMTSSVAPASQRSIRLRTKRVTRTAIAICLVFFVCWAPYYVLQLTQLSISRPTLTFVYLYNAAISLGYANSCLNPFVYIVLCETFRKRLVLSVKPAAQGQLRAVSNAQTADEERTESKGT
T2 sequence (P41146 whole entry): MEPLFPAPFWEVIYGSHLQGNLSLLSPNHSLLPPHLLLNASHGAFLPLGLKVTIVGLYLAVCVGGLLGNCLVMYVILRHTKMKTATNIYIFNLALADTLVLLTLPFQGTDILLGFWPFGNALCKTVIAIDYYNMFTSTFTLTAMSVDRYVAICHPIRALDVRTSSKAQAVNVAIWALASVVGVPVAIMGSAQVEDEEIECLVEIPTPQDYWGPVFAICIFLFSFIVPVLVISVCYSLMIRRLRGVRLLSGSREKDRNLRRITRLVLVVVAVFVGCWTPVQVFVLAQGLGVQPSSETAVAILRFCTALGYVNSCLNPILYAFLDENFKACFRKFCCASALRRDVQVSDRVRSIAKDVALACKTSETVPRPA
T4 sequence (P33032 whole entry): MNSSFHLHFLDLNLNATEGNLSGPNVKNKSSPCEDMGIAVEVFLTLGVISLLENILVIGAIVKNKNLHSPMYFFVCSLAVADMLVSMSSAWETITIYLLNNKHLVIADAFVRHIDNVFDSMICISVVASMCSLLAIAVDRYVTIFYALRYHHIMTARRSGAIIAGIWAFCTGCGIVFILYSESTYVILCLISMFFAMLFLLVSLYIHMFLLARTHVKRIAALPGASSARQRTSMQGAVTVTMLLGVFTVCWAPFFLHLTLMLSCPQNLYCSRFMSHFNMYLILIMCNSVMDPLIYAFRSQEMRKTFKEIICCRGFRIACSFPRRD
T9 sequence (P32245 whole entry): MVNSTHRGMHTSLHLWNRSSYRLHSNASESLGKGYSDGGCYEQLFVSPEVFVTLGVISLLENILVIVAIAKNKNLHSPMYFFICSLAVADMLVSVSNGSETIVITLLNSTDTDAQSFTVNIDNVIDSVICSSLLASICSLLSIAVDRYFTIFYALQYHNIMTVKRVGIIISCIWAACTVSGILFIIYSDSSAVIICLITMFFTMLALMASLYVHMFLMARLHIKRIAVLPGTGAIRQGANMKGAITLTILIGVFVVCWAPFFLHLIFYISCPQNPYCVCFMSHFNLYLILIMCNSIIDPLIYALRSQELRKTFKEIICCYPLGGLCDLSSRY
T1 sequence (P41145 whole entry): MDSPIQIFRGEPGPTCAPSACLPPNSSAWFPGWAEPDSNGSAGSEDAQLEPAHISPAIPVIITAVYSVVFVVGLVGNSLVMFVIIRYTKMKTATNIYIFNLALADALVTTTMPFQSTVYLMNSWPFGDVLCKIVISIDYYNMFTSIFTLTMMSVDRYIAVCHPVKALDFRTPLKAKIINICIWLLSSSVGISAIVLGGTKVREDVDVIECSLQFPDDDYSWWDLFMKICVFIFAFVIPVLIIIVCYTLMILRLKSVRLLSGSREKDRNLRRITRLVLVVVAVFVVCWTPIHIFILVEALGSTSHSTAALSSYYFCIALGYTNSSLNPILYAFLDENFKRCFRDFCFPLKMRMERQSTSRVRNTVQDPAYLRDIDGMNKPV

## COC[C@H]1OC(OCc2ccc(Cl)cc2)[C@H](NC(=O)CNC(=N)N)[C@@H](OCc2ccc(Cl)cc2)[C@@H]1O (stereo partly drawn) [compound 37]
[1]; human κ-opioid (KOP) membranes
  A2 radioligand binding inhibition: − (“−” indicates less than 50% inhibition at 10 μM)
[2]; human ORL1 membranes
  A10 radioligand binding inhibition: − (“−” indicates less than 50% inhibition at 10 μM)
[3]; mouse urotensin mUR2 membranes
  A11 radioligand binding inhibition: − (“−” indicates less than 50% inhibition at 10 μM)
[4]; human melanocortin MC5 membranes
  A5 radioligand binding inhibition: + (“+” indicates greater than 50% inhibition at 10 μM)
[5]; human NPY-Y1 membranes
  A9 radioligand binding inhibition: − (“−” indicates less than 50% inhibition at 10 μM)
[6]; human neurokinin NK1 membranes
  A8 radioligand binding inhibition: − (“−” indicates less than 50% inhibition at 10 μM)
[7]; human μ-opioid (MOP) membranes
  A7 radioligand binding inhibition: − (“−” indicates less than 50% inhibition at 10 μM)
[8]; human melanocortin MC3 membranes
  A3 radioligand binding inhibition: + (“+” indicates greater than 50% inhibition at 10 μM)
[9]; human melanocortin MC4 membranes
  A4 radioligand binding inhibition: + (“+” indicates greater than 50% inhibition at 10 μM)
[10]; human MCH1 membranes
  A6 radioligand binding inhibition: + (“+” indicates greater than 50% inhibition at 10 μM)
[11]; human δ-opioid (DOP) membranes
  A1 radioligand binding inhibition: − (“−” indicates less than 50% inhibition at 10 μM)

## N=C(N)NCC(=O)NC1C(OCc2ccc(-c3ccccc3)cc2)OC(COCc2ccccc2)C(O)C1OCc1ccc2ccccc2c1 (stereo not drawn) [compound 403]
[1]; human KOP membranes
  A2: inhibition of radioligand binding: − (“−” indicates less than 50% inhibition at 10 μM)
[2]; human ORL1 membranes
  A10: inhibition of radioligand binding: + (“+” indicates greater than 50% inhibition at 10 μM)
[3]; mouse mUR2 membranes
  A11: inhibition of radioligand binding: − (“−” indicates less than 50% inhibition at 10 μM)
[4]; human MC5 membranes
  A5: inhibition of radioligand binding: + (“+” indicates greater than 50% inhibition at 10 μM)
[5]; human NPY-Y1 membranes
  A9: inhibition of radioligand binding: − (“−” indicates less than 50% inhibition at 10 μM)
[6]; human NK1 membranes
  A8: inhibition of radioligand binding: + (“+” indicates greater than 50% inhibition at 10 μM)
[7]; human MOP membranes
  A7: inhibition of radioligand binding: − (“−” indicates less than 50% inhibition at 10 μM)
[8]; human MC3 membranes
  A3: inhibition of radioligand binding: + (“+” indicates greater than 50% inhibition at 10 μM)
[9]; human MC4 membranes
  A4: inhibition of radioligand binding: + (“+” indicates greater than 50% inhibition at 10 μM)
[10]; [125I]-S36057, human MCH1 membranes
  A6: inhibition of radioligand binding: + (“+” indicates greater than 50% inhibition at 10 μM)
[11]; human DOP membranes
  A1: inhibition of radioligand binding: − (“−” indicates less than 50% inhibition at 10 μM)

## COCC1OC(OCc2ccc(Cl)cc2)C(NC(=O)CCN)C(OCc2ccc3ccccc3c2)C1O (stereo not drawn) [compound 210]
[1]; filtration
  A2: inhibition of radioligand binding: − (“−” indicates less than 50% inhibition at 10 μM)
[2]; FlashPlate
  A10: inhibition of radioligand binding: − (“−” indicates less than 50% inhibition at 10 μM)
[3]; FlashPlate
  A11: inhibition of radioligand binding: − (“−” indicates less than 50% inhibition at 10 μM)
[4]; FlashPlate
  A5: inhibition of radioligand binding: + (“+” indicates greater than 50% inhibition at 10 μM)
[5]; FlashPlate
  A9: inhibition of radioligand binding: − (“−” indicates less than 50% inhibition at 10 μM)
[6]; filtration
  A8: inhibition of radioligand binding: + (“+” indicates greater than 50% inhibition at 10 μM)
[7]; FlashPlate
  A7: inhibition of radioligand binding: − (“−” indicates less than 50% inhibition at 10 μM)
[8]; FlashPlate
  A3: inhibition of radioligand binding: − (“−” indicates less than 50% inhibition at 10 μM)
[9]; FlashPlate
  A4: inhibition of radioligand binding: + (“+” indicates greater than 50% inhibition at 10 μM)
[10]; [125I]-S36057, FlashPlate
  A6: inhibition of radioligand binding: − (“−” indicates less than 50% inhibition at 10 μM)
[11]; FlashPlate
  A1: inhibition of radioligand binding: − (“−” indicates less than 50% inhibition at 10 μM)
